In ChEMBL document CHEMBL3351251, “3-Arylcoumarins: synthesis and potent anti-inflammatory activity” (Bioorg Med Chem Lett, 2014):

How the values were obtained:
[1] = test system: RAW264.7; test: Anti-inflammatory activity in mouse RAW264.7 cells assessed as inhibition of LPS-induced nitric oxide production at 5 mg/L pre-incubated for 2 hrs before LPS stimulation for 24 hrs; format: functional
[2] = Cytotoxicity against LPS-stimulated mouse RAW264.7 cells assessed as cell viability at 5 mg/L incubated for 24 hrs by alamar blue assay; format: cell-based; conditions: LPS-stimulated RAW264.7 cells, read-out: Activity
[3] = test system: RAW264.7; test: Anti-inflammatory activity in mouse RAW264.7 cells assessed as inhibition of LPS-induced nitric oxide production pre-incubated for 2 hrs before LPS stimulation for 24 hrs; format: functional, cell-based

Row | IC50 [3] | SMILES | inhibition at 5 µg/mL [1] | viability at 24 h, 5 mg/L [2]
1 |  | COc1ccc(-c2cc3ccccc3oc2=O)cc1OC | 47.4% | 47%
2 |  | COc1ccc(-c2cc3cccc(OC)c3oc2=O)cc1 | 44.6% | 81.3%
3 |  | COc1cccc2cc(-c3ccccc3)c(=O)oc12 | 78.4% | 64.5%
4 |  | COc1ccc(-c2cc3ccccc3oc2=O)cc1 | 59.6% | 93.4%
5 |  | COc1cc(Br)cc2cc(-c3ccccc3)c(=O)oc12 | 111% | 29.6%
6 |  | COc1ccc(-c2cc3cc(Br)cc(OC)c3oc2=O)cc1 | 44.2% | 99.9%
7 |  | COc1ccc(-c2cc3cc(Cl)cc(Cl)c3oc2=O)cc1OC | 27.3% | 118%
8 |  | COc1ccc(-c2cc3cc(Cl)ccc3oc2=O)cc1 | 47.5% | 102%
9 |  | COc1ccc(-c2cc3cccc(OC)c3oc2=O)cc1OC | 32.3% | 87.7%
10 |  | COc1cccc(-c2cc3cccc(OC)c3oc2=O)c1 | 91.4% | 34.2%
11 |  | COc1cc(-c2cc3cccc(OC)c3oc2=O)cc(OC)c1OC | 52% | 54.4%
12 |  | COc1cccc2cc(-c3ccc(Cl)cc3)c(=O)oc12 | 61.7% | 93.5%
13 |  | COc1cccc2cc(-c3ccc(F)cc3)c(=O)oc12 | 47.6% | 127%
14 |  | COc1ccc(-c2cc3cc(Cl)ccc3oc2=O)cc1OC | 31.2% | 105%
15 |  | COc1ccccc1-c1cc2cc(Cl)ccc2oc1=O | 65.7% | 115%
16 |  | COc1cc(-c2cc3cc(Cl)ccc3oc2=O)cc(OC)c1OC | 57.6% | 78.4%
17 |  | O=c1oc2ccc(Cl)cc2cc1-c1ccc(Cl)cc1 | 12.1% | 114%
18 |  | COc1ccc(-c2cc3cc(Cl)cc(Cl)c3oc2=O)cc1 | 20.8% | 99.3%

Row | IC50 [3] | SMILES | inhibition at 5 µg/mL [1] | viability at 24 h, 5 mg/L [2]
19 |  | COc1cccc(-c2cc3cc(Cl)cc(Cl)c3oc2=O)c1 | 36% | 105%
20 | 8.5 µM | COc1ccccc1-c1cc2cc(Cl)cc(Cl)c2oc1=O | 76.9% | 119%
21 |  | O=c1oc2c(Cl)cc(Cl)cc2cc1-c1ccccc1 | 53.4% | 104%
22 |  | COc1cccc(-c2cc3ccccc3oc2=O)c1 | 49.2% | 48.4%
23 |  | O=c1oc2ccccc2cc1-c1ccc(F)cc1 | 9.98% | 110%
24 |  | COc1ccc(-c2cc3cc(Br)cc(OC)c3oc2=O)cc1OC | 53.5% | 98%
25 | 6.9 µM | COc1cccc(-c2cc3cc(Br)cc(OC)c3oc2=O)c1 | 72.3% | 116%
26 |  | COc1ccccc1-c1cc2cc(Br)cc(OC)c2oc1=O | 47.6% | 95.7%
27 |  | COc1cc(-c2cc3cc(Br)cc(OC)c3oc2=O)cc(OC)c1OC | 47.3% | 115%
28 |  | COc1cc(Br)cc2cc(-c3ccc(F)cc3)c(=O)oc12 | 33.9% | 103%
29 |  | COc1cc(Br)cc2cc(-c3cccc(OC(C)=O)c3)c(=O)oc12 | 84.1% | 66.5%
30 |  | COc1cc(Br)cc2cc(-c3cccc(O)c3)c(=O)oc12 | 116% | 28.5%
31 |  | COc1cc(Br)cc2cc(-c3ccc(OC(C)=O)cc3)c(=O)oc12 | 77.8% | 61.7%
32 |  | COc1cc(Br)cc2cc(-c3ccc(O)cc3)c(=O)oc12 | 91.3% | 24.4%
33 |  | COc1ccc(OC)c(-c2cc3cc(Br)cc(OC)c3oc2=O)c1 | 45.9% | 93.5%
34 |  | COc1cc(Br)cc2cc(-c3cccnc3)c(=O)oc12 | 58.6% | 84.9%
35 |  | O=c1oc2ccccc2cc1-c1ccccc1 | 69.5% | 104%
36 | 6.2 µM | COc1cc(/C=C/C(=O)CC(=O)/C=C/c2ccc(O)c(OC)c2)ccc1O [CURCUMIN] | 77% | 
